According to patent US11357857B2, “Excipient compounds for protein processing” (COMERA LIFE SCIENCES, INC., priority 2014, dated 2022):
“And” between values parts separate entries of the source, which are not always exact repeats. Identical values can stand only once. Counter-ions that a name gives are not always drawn. Like-named read-outs stand apart in the source and are kept apart here. One block for each compound: values may come before it.

Legend:
[1] = test system: bovine gamma globulin (BGG); test: Viscosity of 280 mg/mL BGG formulations in 50 mM histidine HCl pH 6 with excipient, cone and plate viscometer (Examples 1, 2, 4-6); assay type: physicochemical
[2] = test system: bovine gamma globulin (BGG); test: Normalized viscosity of 280 mg/mL BGG in 20 mM histidine with excipients A/B (Example 20); assay type: physicochemical; conditions: no B
Excerpt: Excipient compounds for this Example are listed below in Table 11.

[3] = test system: bovine gamma globulin (BGG)
[4] = Viscosity of PEG (Mw ~1,000,000) solution in Tris buffer with excipient (Examples 12-13); assay type: physicochemical
[5] = Caffeine solubility testing with co-solutes at ambient temperature (Examples 32-33); conditions: for Observation of caffeine dissolution: caffeine 80 mg/mL
Protocol: Prepared solutions were used either neat or diluted with deionized water.
A small magnetic stir bar was added to the vial, and the solution was allowed to mix vigorously on a stir plate for about 10 minutes.

Compound: NC(C1CCCCC1)C1CCCCC1 [DCHMA-HCl, dicyclohexylmethylamine]
Viscosity ([1]; excipient 29 mg/mL): 51 cP
Viscosity Reduction ([1]; excipient 29 mg/mL): 35%
Viscosity ([1]; excipient 50 mg/mL): 51 cP
Viscosity Reduction ([1]; excipient 50 mg/mL): 35%

Compound: Arg-Pro [Dipeptide RP (Arg-Pro)]
Viscosity ([1]; excipient 50 mg/mL): 51 cP
Viscosity Reduction ([1]; excipient 50 mg/mL): 35%
Viscosity ([1]; excipient 100 mg/mL): 53 cP
Viscosity Reduction ([1]; excipient 100 mg/mL): 33%

Compound: Arg-Arg [Dipeptide RR (Arg-Arg)]
Viscosity ([1]; excipient 50 mg/mL): 57 cP
Viscosity Reduction ([1]; excipient 50 mg/mL): 28%
Viscosity ([1]; excipient 100 mg/mL): 62 cP
Viscosity Reduction ([1]; excipient 100 mg/mL): 22%

Compound: Cl.NCCc1c[nH]cn1 [Histamine HCl]
Viscosity Reduction ([3]; excipient 50 mg/mL): 59%

Compound: Nc1ncnc2c1ncn2[C@@H]1O[C@H](COP(=O)(O)O)[C@@H](O)[C@H]1O [Adenosine monophosphate]
Viscosity ([1]; excipient 26 mg/mL): 47 cP
Viscosity Reduction ([1]; excipient 26 mg/mL): 41%
Viscosity ([1]; excipient 50 mg/mL): 66 cP
Viscosity Reduction ([1]; excipient 50 mg/mL): 16%

Compound: O=C(O)CN(CCN(CC(=O)O)CC(=O)O)CC(=O)O [EDTA/K salt, ethylenediaminetetraacetic acid (EDTA)]
Viscosity ([4]; excipient 20 mg/mL): 76.9 cP
Viscosity Reduction ([4]; excipient 20 mg/mL): 27%
Viscosity ([4]; excipient 40 mg/mL): 67.1 cP
Viscosity Reduction ([4]; excipient 40 mg/mL): 36%

Compound: Cc1cc(C)nc(C)c1 [2,4,6-trimethylpyridine]
Viscosity Reduction ([3]; excipient 50 mg/mL): 51%

Compound: Arg-Glu [Dipeptide RE (Arg-Glu)]
Viscosity ([1]; excipient 50 mg/mL): 50 cP
Viscosity Reduction ([1]; excipient 50 mg/mL): 37%
Viscosity ([1]; excipient 100 mg/mL): 66 cP
Viscosity Reduction ([1]; excipient 100 mg/mL): 16%

Compound: O=C([O-])c1ccccc1O.[Na+] [Sodium salicylate]
Viscosity [1]: 57 cP and 52 cP

Compound: O=C(O)[C@H](O)[C@@H](O)[C@H](O)[C@H](O)CO [D-Gluconic acid/Na salt, D-Gluconic acid]
Viscosity ([4]; excipient 20 mg/mL): 86.6 cP
Viscosity Reduction ([4]; excipient 20 mg/mL): 17%
Viscosity ([4]; excipient 40 mg/mL): 81.24 cP
Viscosity Reduction ([4]; excipient 40 mg/mL): 23%

Compound: Leu-Glu [Dipeptide LE (Leu-Glu)]
Viscosity ([1]; excipient 50 mg/mL): 72 cP
Viscosity Reduction ([1]; excipient 50 mg/mL): 9%
Viscosity ([1]; excipient 100 mg/mL): 87 cP
Viscosity Reduction ([1]; excipient 100 mg/mL): −10%

Compound: O=C1CCCN1 [2-Pyrrolidinone]
Viscosity Reduction ([3]; excipient 60 mg/mL): 32%

Compound: NCCN [Ethylene diamine]
Viscosity ([4]; excipient 20 mg/mL): 83.9 cP
Viscosity Reduction ([4]; excipient 20 mg/mL): 15%
Viscosity ([4]; excipient 40 mg/mL): 84.7 cP
Viscosity Reduction ([4]; excipient 40 mg/mL): 17%

Compound: CCN(CC)C(=O)c1cccnc1 [N,N-diethyl nicotinamide]
Viscosity Reduction ([3]; excipient 50 mg/mL): 33%

Compound: NC(=O)c1ccncc1 [Isonicotinamide]
Viscosity Reduction ([3]; excipient 50 mg/mL): 52%

Compound: Nc1cccnc1 [3-aminopyridine]
Viscosity Reduction ([3]; excipient 50 mg/mL): 49%

Compound: O=C(O)CN(CCN(CC(=O)O)CC(=O)O)CC(=O)O [EDTA/Na salt, ethylenediaminetetraacetic acid (EDTA)]
Viscosity ([4]; excipient 20 mg/mL): 77.4 cP
Viscosity Reduction ([4]; excipient 20 mg/mL): 26%
Viscosity ([4]; excipient 40 mg/mL): 68.1 cP
Viscosity Reduction ([4]; excipient 40 mg/mL): 35%

The remaining lines, values ahead:

Viscosity ([1]; excipient 50 mg/mL): 60 cP
Viscosity Reduction ([1]; excipient 50 mg/mL): 24%
Viscosity ([1]; excipient 100 mg/mL): 59 cP
Viscosity Reduction ([1]; excipient 100 mg/mL): 25%
Compound: Trp2Lys3

Normalized Viscosity ([2]; excipient A 30 mg/mL): 0.58
Normalized Viscosity ([2]; excipient A 60 mg/mL): 0.51
Compound: O=C1NS(=O)(=O)c2ccccc21 [Saccharin]

Viscosity Reduction ([3]; excipient 50 mg/mL): 49%
Viscosity ([1]; excipient 48 mg/mL): 39 cP
Viscosity Reduction ([1]; excipient 48 mg/mL): 51%
Observation of caffeine dissolution ([5]; co-solute 30 mg/mL): DND
Compound: NC(=O)c1cccnc1 [Niacinamide]

Viscosity ([4]; excipient 12 mg/mL): 79.4 cP
Viscosity Reduction ([4]; excipient 12 mg/mL): 24%
Viscosity ([4]; excipient 24 mg/mL): 71.6 cP
Viscosity Reduction ([4]; excipient 24 mg/mL): 32%
Compound: CC(O)(P(=O)(O)O)P(=O)(O)O [etidronic acid/Na salt, etidronic acid]

Viscosity ([1]; excipient 25 mg/mL): 56 cP
Viscosity Reduction ([1]; excipient 25 mg/mL): 29%
Viscosity ([1]; excipient 50 mg/mL): 50 cP
Viscosity Reduction ([1]; excipient 50 mg/mL): 37%
Compound: COc1cc(C(=O)[O-])ccc1O.[Na+] [Vanillic acid, sodium salt]

Viscosity ([1]; excipient 30 mg/mL): 45 cP
Viscosity Reduction ([1]; excipient 30 mg/mL): 43%
Viscosity ([1]; excipient 52 mg/mL): 52 cP
Viscosity Reduction ([1]; excipient 52 mg/mL): 34%
Compound: CN1CCCC1=O [N-Methyl-2-pyrrolidone]

Normalized Viscosity ([2]; excipient A 10 mg/mL): 0.84
Compound: Cn1c(=O)c2[nH]cnc2n(C)c1=O [Theophylline]

Observation of caffeine dissolution ([5]; co-solute 45 mg/mL): DND
Dissolution of caffeine enabled relative to reported solubility limit ([5]; co-solute in water, ambient temperature (about 23 C)): at least about four times
Compound: O=C1NS(=O)(=O)c2ccccc21.[Na] [Saccharin, Na, saccharin sodium salt]

Viscosity Reduction ([3]; excipient 55 mg/mL): 43%
Compound: O=C([O-])C(=O)Cc1ccccc1.[Na+] [Sodium phenylpyruvate]
